Measured values published in patent US9586951B2 (FUJIFILM Corporation, priority 2013, dated 2017).

How the values were obtained:
[1] = tested on: human non-small cell lung cancer cell line NCI-H460; assay: Cell proliferation inhibition test by sensitivity-enhancing to ionizing radiation (Cell Titer Glo); assay type: cell-based; conditions: concentration in which SER became 2, NCI-H460 cells, ionizing radiation 2 Gy, cultured 120 hour
Outline: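 Cells seeded at 2×10^3 cells/mL in RPMI-1640 with 10% FBS; after 24 h, compound added (0.1% DMSO), and 30 min later half the plates irradiated at 2 Gy. After 120 hour at 37° C, viability by Cell Titer Glo luminescence; SER2 is the concentration giving SER of 2 by sigmoidal fit.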

ATM = biological target: T1, ATM (Homo sapiens, UniProt Q13315); assay: ATM inhibition test (phosphorylation of Chk2 generated by ionizing radiation, AlphaScreen SureFire); assay type: cell-based; conditions: phosphorylated Chk2 in NCI-H460 cells, ionizing radiation 8Gy, 1 hour after test compound treatment; read-out: ATM inhibitory activity
T1 construct: detecting phosphorylation of Chk2 in a human non-small cell lung cancer cell line NCI-H460 (ATCC company); host or cells: NCI-H460 human non-small cell lung cancer cells
T1 sequence (Q13315 whole entry): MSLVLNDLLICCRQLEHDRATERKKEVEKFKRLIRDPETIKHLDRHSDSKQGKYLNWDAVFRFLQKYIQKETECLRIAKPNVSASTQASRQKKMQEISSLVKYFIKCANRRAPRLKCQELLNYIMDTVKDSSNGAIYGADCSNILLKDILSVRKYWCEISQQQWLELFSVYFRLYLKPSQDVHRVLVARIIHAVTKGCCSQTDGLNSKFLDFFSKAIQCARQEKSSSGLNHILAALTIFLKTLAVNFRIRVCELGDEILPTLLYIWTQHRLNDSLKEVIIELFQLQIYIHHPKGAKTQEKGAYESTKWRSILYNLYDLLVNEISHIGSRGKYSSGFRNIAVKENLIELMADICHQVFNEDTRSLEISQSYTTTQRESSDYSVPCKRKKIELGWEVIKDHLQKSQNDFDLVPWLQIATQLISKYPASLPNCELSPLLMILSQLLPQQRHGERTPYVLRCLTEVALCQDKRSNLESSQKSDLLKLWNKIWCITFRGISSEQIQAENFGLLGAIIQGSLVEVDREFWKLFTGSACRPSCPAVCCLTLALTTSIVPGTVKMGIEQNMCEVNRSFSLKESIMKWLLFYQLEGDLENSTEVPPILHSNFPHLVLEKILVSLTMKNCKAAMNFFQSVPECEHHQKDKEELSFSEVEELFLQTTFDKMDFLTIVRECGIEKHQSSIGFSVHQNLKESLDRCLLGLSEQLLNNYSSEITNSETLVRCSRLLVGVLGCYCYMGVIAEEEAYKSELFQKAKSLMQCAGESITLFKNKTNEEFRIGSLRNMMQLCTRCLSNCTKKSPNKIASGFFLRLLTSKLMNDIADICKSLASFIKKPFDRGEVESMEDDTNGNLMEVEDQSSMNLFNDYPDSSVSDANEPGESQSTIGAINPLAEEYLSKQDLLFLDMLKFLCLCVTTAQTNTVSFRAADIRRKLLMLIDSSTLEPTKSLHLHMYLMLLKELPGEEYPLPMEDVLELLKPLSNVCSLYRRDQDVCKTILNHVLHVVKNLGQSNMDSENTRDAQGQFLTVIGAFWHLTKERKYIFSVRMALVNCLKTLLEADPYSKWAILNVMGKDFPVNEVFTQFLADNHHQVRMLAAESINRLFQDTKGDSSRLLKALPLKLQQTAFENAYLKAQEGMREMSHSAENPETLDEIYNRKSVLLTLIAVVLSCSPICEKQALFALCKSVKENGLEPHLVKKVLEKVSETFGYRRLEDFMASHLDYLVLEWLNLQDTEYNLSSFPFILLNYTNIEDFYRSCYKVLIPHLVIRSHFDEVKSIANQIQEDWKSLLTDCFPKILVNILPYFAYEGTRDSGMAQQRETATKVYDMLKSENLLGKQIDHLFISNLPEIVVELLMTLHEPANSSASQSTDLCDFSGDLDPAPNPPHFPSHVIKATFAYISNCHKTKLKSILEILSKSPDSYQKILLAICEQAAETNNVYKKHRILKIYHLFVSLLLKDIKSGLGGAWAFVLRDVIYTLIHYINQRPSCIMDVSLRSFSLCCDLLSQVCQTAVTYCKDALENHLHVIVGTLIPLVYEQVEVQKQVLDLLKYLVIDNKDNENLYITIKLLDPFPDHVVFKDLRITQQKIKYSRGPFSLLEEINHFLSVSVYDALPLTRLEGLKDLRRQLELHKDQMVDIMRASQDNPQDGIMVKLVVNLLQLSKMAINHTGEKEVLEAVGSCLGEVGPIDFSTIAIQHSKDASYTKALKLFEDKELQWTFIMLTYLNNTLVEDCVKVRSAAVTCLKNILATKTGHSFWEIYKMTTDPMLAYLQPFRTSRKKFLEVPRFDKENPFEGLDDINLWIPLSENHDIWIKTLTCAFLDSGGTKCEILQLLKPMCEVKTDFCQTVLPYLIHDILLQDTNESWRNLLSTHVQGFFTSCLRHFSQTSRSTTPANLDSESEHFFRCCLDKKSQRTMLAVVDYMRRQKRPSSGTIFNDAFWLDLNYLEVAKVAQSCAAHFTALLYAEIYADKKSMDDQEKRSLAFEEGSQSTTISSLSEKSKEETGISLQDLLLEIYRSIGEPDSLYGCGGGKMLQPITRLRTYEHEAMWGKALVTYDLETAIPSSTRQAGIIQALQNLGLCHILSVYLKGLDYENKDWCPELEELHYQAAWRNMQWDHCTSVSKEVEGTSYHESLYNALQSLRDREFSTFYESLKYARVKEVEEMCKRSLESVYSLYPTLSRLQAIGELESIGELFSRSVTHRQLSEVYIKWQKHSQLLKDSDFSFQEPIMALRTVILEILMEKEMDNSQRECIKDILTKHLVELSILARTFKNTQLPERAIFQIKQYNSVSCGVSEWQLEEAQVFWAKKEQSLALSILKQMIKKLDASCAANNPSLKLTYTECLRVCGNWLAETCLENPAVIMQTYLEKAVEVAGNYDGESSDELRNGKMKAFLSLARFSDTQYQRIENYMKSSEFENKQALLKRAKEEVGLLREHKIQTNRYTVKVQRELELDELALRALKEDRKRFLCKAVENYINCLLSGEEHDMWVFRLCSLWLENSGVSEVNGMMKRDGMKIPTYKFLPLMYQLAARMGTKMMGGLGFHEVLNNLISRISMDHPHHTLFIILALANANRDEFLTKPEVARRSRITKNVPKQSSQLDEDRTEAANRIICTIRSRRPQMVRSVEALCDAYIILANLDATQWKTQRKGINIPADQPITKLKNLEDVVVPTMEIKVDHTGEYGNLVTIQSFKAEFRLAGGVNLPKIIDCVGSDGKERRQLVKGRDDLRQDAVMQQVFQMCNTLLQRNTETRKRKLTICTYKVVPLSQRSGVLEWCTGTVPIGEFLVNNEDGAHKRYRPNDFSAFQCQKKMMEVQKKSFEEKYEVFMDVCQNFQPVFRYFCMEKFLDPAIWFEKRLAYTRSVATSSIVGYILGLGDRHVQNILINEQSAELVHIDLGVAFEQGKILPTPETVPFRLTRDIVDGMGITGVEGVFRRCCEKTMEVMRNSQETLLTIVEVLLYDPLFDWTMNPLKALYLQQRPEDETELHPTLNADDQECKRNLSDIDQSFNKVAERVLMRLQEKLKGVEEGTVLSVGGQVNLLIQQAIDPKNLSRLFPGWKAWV
Outline: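 Phosphorylated Chk2 read by AlphaScreen SureFire in human non-small cell lung cancer NCI-H460 cells, 1 hour after 8Gy ionizing radiation at 37° C. Compound added 1 hour before irradiation. Percent inhibition normalised between irradiated and non-irradiated drug-untreated signals.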

Row | SMILES | SER2 (concentration at which the radiation sensitivity-enhancement ratio reaches 2) ([1]; Homo sapiens, NCI-H460, 120 h) [nM] | IC50 (ATM) [nM] | SER2 (concentration at which the radiation sensitivity-enhancement ratio reaches 2) [1] [nM]
1 | COCCOCC(Nc1ccc2c(c1)Sc1cccc(-c3cc(N4CCOCC4)cc(=O)[nH]3)c1S2)c1ncc(C)cn1 (stereo not shown) [Example 1-12-98, 6-(7-((2-(2-Methoxyethoxy)-1-(5-methylpyrimidin-2-yl)ethyl)amino)thianthren-1-yl)-4-morpholino pyridin-2(1H)-one] | 100 to 500 | < 100 | 
2 | COc1ccc(CNc2ccc3c(c2)Cc2cccc(-c4cc(N5CCOCC5)cc(=O)[nH]4)c2S3)cn1 [Example 3-8-10, 6-(7-(((6-Methoxypyridin-3-yl)methyl)amino)-9H-thioxanthen-4-yl)-4-morpholino pyridin-2(1H)-one] | 100 to 500 | < 100 | 
3 | Cc1ccc(C2(Nc3ccc4c(c3)Sc3cccc(-c5cc(N6CCOCC6)cc(=O)[nH]5)c3S4)CC2)nc1 [Example 1-50-5, 6-(7-((1-(5-Methylpyridin-2-yl)cyclopropyl)amino)thianthren-1-yl)-4-morpholino pyridin-2(1H)-one] | 100 to 500 | < 100 | 
4 | Cc1cccc(CNc2ccc3c(c2)Cc2ccc(F)c(-c4cc(N5CCOCC5)cc(=O)[nH]4)c2O3)n1 [Example 2-46-4, 6-(3-Fluoro-7-(((6-methylpyridin-2-yl)methyl)amino)-9H-xanthen-4-yl)-4-morpholinopyridin-2(1H)-one] | 100 to 500 | < 100 | 
5 | O=c1cc(N2CCOCC2)cc(-c2cccc3c2Oc2ccc(NCc4cc(-n5cccc5)ccn4)cc2C3)[nH]1 [Example 2-2-71, 6-(7-(((4-(1H-Pyrrol-1-yl)pyridin-2-yl)methyl)amino)-9H-xanthen-4-yl)-4-morpholino pyridin-2(1H)-one] | 100 to 500 | < 100 | 
6 | CNCC(Nc1ccc2c(c1)Sc1cccc(-c3cc(N4CCOCC4)cc(=O)[nH]3)c1S2)c1cc(C)ccn1 (stereo not shown) [Example 1-19-3, 6-(7-((2-(Methylamino)-1-(4-methylpyridin-2-yl)ethyl)amino)thianthren-1-yl)-4-morpholinopyridin-2(1H)-one] | 100 to 500 | < 100 | 
7 | N#Cc1ccnc(CNc2ccc3c(c2)Cc2cccc(-c4cc(N5CCOCC5)cc(=O)[nH]4)c2O3)c1 [Example 2-14-11, 2-(((5-(4-Morpholino-6-oxo-1,6-dihydropyridin-2-yl)-9H-xanthen-2-yl)amino)methyl) isonicotinonitrile] | 100 to 500 | < 100 | 
8 | CN(C)c1ncc(CNc2ccc3c(c2)Cc2cccc(-c4cc(N5CCOCC5)cc(=O)[nH]4)c2O3)cn1 [Example 2-2-17, 6-(7-(((2-(Dimethylamino)pyrimidin-5-yl)methyl)amino)-9H-xanthen-4-yl)-4-morpholino pyridin-2(1H)-one] | 500 to 2000 | < 100 | 
9 | Cc1ccc(C(C)Nc2ccc3c(c2)Sc2cccc(-c4cc(N5CCOCC5)cc(=O)[nH]4)c2S3)nc1 (stereo not shown) [Example 1-12-113, 6-(7-((1-(5-Methylpyridin-2-yl)ethyl)amino)thianthren-1-yl)-4-morpholino pyridin-2(1H)-one] | 100 to 500 | < 100 | 
10 | COc1cncc(C(C)Nc2ccc3c(c2)Sc2cccc(-c4cc(N5CCOCC5)cc(=O)[nH]4)c2S3)c1 (single isomer, unassigned) [Example 1-12-145-1, 6-(7-((1-(5-methoxypyridin-3-yl)ethyl)amino)thianthren-1-yl)-4-morpholinopyridin-2(1H)-one] | 100 to 500 | < 100 | 
11 | Cc1cnc(C(CCN(C)C)Nc2ccc3c(c2)Sc2cccc(-c4cc(N5CCOCC5)cc(=O)[nH]4)c2S3)cn1 (single isomer, unassigned) [Example 1-22-12-2, 6-(7-((3-(dimethylamino)-1-(5-methylpyrazin-2-yl)propyl)amino)thianthren-1-yl)-4-morpholinopyridin-2(1H)-one] |  | < 100 | < 100
12 | Cc1ccc(C(Nc2ccc3c(c2)Sc2cccc(-c4cc(N5CCOCC5)cc(=O)[nH]4)c2S3)C2CCN(C)CC2)nc1 (single isomer, unassigned) [Example 1-51-1, 6-(7-(((1-methylpiperidin-4-yl)(5-methylpyridin-2-yl)methyl)amino)thianthren-1-yl)-4-morpholinopyridin-2(1H)-one] |  | < 100 | < 100
13 | O=c1cc(N2CCOCC2)cc(-c2cccc3c2Sc2ccc(NC(CF)CN4CCOCC4)cc2S3)[nH]1 (single isomer, unassigned) [Example 1-41-1-2, 6-(7-((1-fluoro-3-morpholinopropan-2-yl)amino)thianthren-1-yl)-4-morpholinopyridin-2(1H)-one] | < 100 | < 100 | 
14 | Cc1ccc(CNc2ccc3c(c2)Sc2cccc(-c4cc(N5CCOCC5)cc(=O)[nH]4)c2O3)cn1 [Example 4-8-23, 6-(8-(((6-Methylpyridin-3-yl)methyl)amino)phenoxathiin-4-yl)-4-morpholino pyridin-2(1H)-one] | 100 to 500 | < 100 | 
15 | COc1ccnc(C(C)Nc2ccc3c(c2)Cc2cccc(-c4cc(N5CCOCC5)cc(=O)[nH]4)c2O3)c1 (single isomer, unassigned) [Example 2-14-86-2, 6-(7-((1-(4-methoxypyridin-2-yl)ethyl)amino)-9H-xanthen-4-yl)-4-morpholinopyridin-2(1H)-one] | 100 to 500 | < 100 | 
16 | COC[C@H](CN1CCO[C@H](C)C1)Nc1ccc2c(c1)Sc1cccc(-c3cc(N4CCOCC4)cc(=O)[nH]3)c1S2 [Example 1-46-7, 6-(7-(((S)-1-Methoxy-3-((R)-2-methylmorpholino)propan-2-yl)amino)thianthren-1-yl)-4-morpholino pyridin-2(1H)-one] | 100 to 500 | < 100 | 
17 | Cc1ccnc(C(C)Nc2ccc3c(c2)Sc2cccc(-c4cc(N5CCOCC5)cc(=O)[nH]4)c2S3)c1 (stereo not shown) [Example 1-12-29] | < 100 | < 100 | 
18 | COC(C)(C)c1cncc(CNc2ccc3c(c2)Cc2cccc(-c4cc(N5CCOCC5)cc(=O)[nH]4)c2O3)c1 [Example 2-14-12, 6-(7-(((5-(2-Methoxypropan-2-yl)pyridin-3-yl)methyl)amino)-9H-xanthen-4-yl)-4-morpholino pyridin-2 (1H)-one] | 100 to 500 | < 100 | 
19 | Cc1cccc(C(C)Nc2ccc3c(c2)Sc2cccc(-c4cc(N5CCOCC5)cc(=O)[nH]4)c2S3)n1 (stereo not shown) [Example 1-12-30, 6-(7-((1-(6-Methylpyridin-2-yl)ethyl)amino)thianthren-1-yl)-4-morpholino pyridin-2 (1H)-one] | < 100 | < 100 | 
20 | COc1cncc(CNc2ccc3c(c2)Sc2cccc(-c4cc(N5CCOCC5)cc(=O)[nH]4)c2O3)c1 [Example 4-8-1, 6-(8-(((5-Methoxypyridin-3-yl)methyl)amino)phenoxathiin-4-yl)-4-morpholinopyridin-2(1H)-one] | 100 to 500 | < 100 | 
21 | CC(CN1CCCCC1)Nc1ccc2c(c1)Sc1cccc(-c3cc(N4CCOCC4)cc(=O)[nH]3)c1S2 (stereo not shown) [Example 1-13-4] | 100 to 500 | < 100 | 
22 | COc1cncc(CNc2ccc3c(c2)Cc2cccc(-c4cc(N5CCOCC5)cc(=O)[nH]4)c2O3)n1 [Example 2-13-9, 6-(7-(((6-Methoxypyrazin-2-yl)methyl)amino)-9H-xanthen-4-yl)-4-morpholino pyridin-2(1H)-one] | 500 to 2000 | < 100 | 
23 | O=c1cc(N2CCOCC2)cc(-c2cccc3c2Oc2ccc(NCc4cncc(Br)c4)cc2S3)[nH]1 [Example 4-8-22, 6-(8-(((5-Bromopyridin-3-yl)methyl)amino)phenoxathiin-4-yl)-4-morpholino pyridin-2(1H)-one] | 100 to 500 | < 100 | 
24 | Cc1ccc(C(Nc2ccc3c(c2)Sc2cccc(-c4cc(N5CCOCC5)cc(=O)[nH]4)c2S3)[C@H]2CN(C(=O)CN(C)C)CCO2)nc1 (single isomer, unassigned) [Example 10-1] | < 100 | 100 to 500 | 
25 | COc1cc(OC)nc(CNc2ccc3c(c2)Cc2cccc(-c4cc(N5CCOCC5)cc(=O)[nH]4)c2O3)n1 [Example 2-2-51, 6-(7-(((4,6-Dimethoxypyrimidin-2-yl)methyl)amino)-9H-xanthen-4-yl)-4-morpholino pyridin-2 (1H)-one] | 500 to 2000 | < 100 | 
26 | O=c1cc(N2CCOCC2)cc(-c2cccc3c2Sc2ccc(NC4CCCC4N4CCOCC4)cc2S3)[nH]1 (racemic) [Example 1-16-1-1, 4-morpholino-6-(7-((2-morpholinocyclopentyl)amino)thianthren-1-yl)pyridin-2(1H)-one] | < 100 | < 100 | 
